We go through 5 substances from article PMC11283679 (Gastroenterology, 2023).

For the assay, the system named is NHE3. The assay is classed as cell-based, human. The settings on record: for activity: read-out: Stimulation of NHE3 activity (%).

Ends that are not written are not given here. C(BODIPY) = not defined here

What is called EC50 is the concentration at which the effect is half-maximal. The low end stands for greater potency, the high end for weaker potency. For the substance “N3SP-1Δ5: N3SP-1 with truncation of 5 N-terminal aa (TPRPSTVEASVSYLLRESASAVCLDMQSLEQRR-{C(BODIPY)}; reading uncertain; UniProt P26432 573-605, looked up, fragment)”, the EC50 is 154 nM and the activity turned out to be 39%. In the same order, the values of “N3SP-1Δ6: N3SP-1 with truncation of 6 N-terminal aa (PRPSTVEASVSYLLRESASAVCLDMQSLEQRR-{C(BODIPY)}; reading uncertain; UniProt P26432 574-605, looked up, fragment)” are 151 nM and 40%. Regarding “N3SP-1Δ8: N3SP-1 with truncation of 8 N-terminal aa (PSTVEASVSYLLRESASAVCLDMQSLEQRR-{C(BODIPY)}; reading uncertain; UniProt P26432 576-605, looked up, fragment)”, the activity was 9%. In the case of “N3SP-1Δ9: N3SP-1 with truncation of 9 N-terminal aa (STVEASVSYLLRESASAVCLDMQSLEQRR-{C(BODIPY)}; reading uncertain; UniProt P26432 577-605, looked up, fragment)”, the “Stimulation of NHE3 activity (%)” value is on record as “No”.

Regarding “N3SP-1Δ18: N3SP-1 with truncation of 18 N-terminal aa (LLRESASAVCLDMQSLEQRR-{C(BODIPY)}; reading uncertain; UniProt P26432 586-605, looked up, fragment)”, the “Stimulation of NHE3 activity (%)” value is “No”.
